According to patent US4104389A, “Antiallergic pyrido[2,1-b]quinazolin-ones” (Warner-Lambert Company, priority 1977, dated 1978):
Read-outs that look alike come from different tables or passages of the source.

Legend:
[1] = tested on: antibody-antigen reactions (PCA); test: PCA (rat), procedure of Herzig; reduction of allergic responses to antigen challenge; format: in vivo
Experimental: When tested in accordance with the procedure of Herzig [Immunopharmacology, M. E. Rosenthale and H. C. Mansmann, Eds., John Wiley and Son, N.Y., 1975], these compounds as shown in Table I may be administered orally, parenterally, or by aerosol at a dose of 0.005-20mg/kg. Compounds of this invention are useful in the management of allergic reactions such as bronchial asthma.

[2] = Netherlands Pat. No. 6,414,717; cited from earlier work
[3] = rat, iv., read-out: ED50 - PCA (rat) iv.

Structure (SMILES): O=C(O)c1ccc2nc3ccccc3c(=O)n2c1 [Example 1, 11-oxo-11H-pyrido[2,1-b]quinazoline-8-carboxylic acid]
- activity when given intravenously ([1]; intravenously): active
- activity when given orally ([1]; orally): active
- ED50 ([1]; rat, ip., read-out: ED50 - PCA (rat) ip.): 2 mg/kg
- ED50 [1, 3]: 0.2 mg/kg
- ED50 ([1]; rat, po., read-out: ED50 - PCA (rat) po.): 2 mg/kg

Structure (SMILES): O=C(O)c1cccn2c(=O)c3ccccc3nc12 [Example 799]
- anti-inflammatory action [2]: possesses anti-inflammatory action
- activity compared with isomers of the invention ([1]; comparison in words, Table I): less active
- PCA (rat) inhibition, ip. ([1]; rat, ip., 10mg/kg): 21%
- PCA (rat) activity, po., in words ([1]; rat, po., 10mg/kg): inactive

Structure (SMILES): O=C(O)c1cc(=O)c2c(OCC(O)COc3cccc4oc(C(=O)O)cc(=O)c34)cccc2o1 [Intal]
- ED50 - PCA (rat) ip., in words ([1]; rat, ip., dose not given): inact.
- ED50 [1, 3]: 1 to 2 mg/kg
- ED50 - PCA (rat) po., in words ([1]; rat, po., dose not given): inactive
